According to US7208281B2 (priority 2001, dated 2007):
Read-outs that look alike come from different tables or passages of the source.

How the values were obtained:
PrPsc [1] = tested on: PrPsc
PrPC [2] = target: PrPC (Bos taurus, UniProt P10279); settings: fibronectin coupled with europium nanobeads, incubated with sample
PrPsc [3] = tested on: PrPsc; remark: listed apart in the source
PrPC [4] = target: PrPC (Homo sapiens, UniProt P04156); settings: microtiter plate coated with fibronectin
PrPsc [5] = settings: cited from earlier work
prions = settings: cited from earlier work

Chain of PrPC (Bos taurus, UniProt P10279) (P10279 25-241 limits assumed): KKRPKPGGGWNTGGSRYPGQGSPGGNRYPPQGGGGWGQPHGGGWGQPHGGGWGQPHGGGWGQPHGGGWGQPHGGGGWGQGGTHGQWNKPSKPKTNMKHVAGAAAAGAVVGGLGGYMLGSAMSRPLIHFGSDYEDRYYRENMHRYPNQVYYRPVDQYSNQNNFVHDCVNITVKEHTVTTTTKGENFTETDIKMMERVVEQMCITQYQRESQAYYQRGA

## fibronectin
PrPsc [1]
  adherence of pathological PrP (PrPsc): adheres
PrPC [2]
  adherence of normal PrP (PrPc): does not
PrPsc [3]
  adherence of pathological PrP (PrPsc): adheres
PrPC [4]
  adherence of normal PrP (PrPc): does not

## plasminogen
PrPsc [5]
  binding of PrPsc: binding specifically

## poly-b-xylose-2,3-disulphonate [Pentosan]
prions
  inhibition of the production of prions: inhibits the production of prions most strongly
